Results published in PubChem BioAssay AID1996.
In brackets after ≈: the same amount, converted by molar mass.

Conditions: buffer; pH 7.4; 200.0 µM

Structure (SMILES) | solubility kinetic
O=C(CCS(=O)(=O)c1ccc(F)cc1)N1CCOCC1 | > 45.2 µg/mL
Cc1cc(C)n(CCCNC(=O)c2ccc(C)o2)n1 | > 39.2 µg/mL
Cc1ccc[n+](CC(=O)Nc2cccc(Cl)c2)c1.[Cl-] | > 44.6 µg/mL
CCC(=O)Nc1sc(Cc2ccc3c(c2)OCO3)c(C)c1C(N)=O | 5.2 µg/mL (≈ 15 µM)
CCOC(=O)c1cc2c(ccc3nc(C)c(C)c32)[nH]c1C | < 0.3 µg/mL
COc1ccc(-c2cc3ccccc3nc2N)cc1OC | 3 µg/mL (≈ 10.7 µM)
COc1ccc(N2CCN(CC(=O)NCc3ccc(Cl)cc3)CC2)cc1 | 2.2 µg/mL (≈ 5.88 µM)
O=C(Nc1ccccc1)Nc1ccno1 | > 30.5 µg/mL
O=C(CCCOc1ccccc1)NC(=S)Nc1ccccc1 | 1.8 µg/mL (≈ 5.73 µM)
O=c1[nH]c(=S)n(-c2ccccc2)c(O)c1C=NCCN1CCNCC1 | > 53.9 µg/mL
CC(C)CNC(=O)COC(=O)c1ccc(F)cc1Cl | > 43.2 µg/mL
CSc1c(CC(=O)Nc2ccccc2)n(C)c2ccccc12 | 0.4 µg/mL (≈ 1.29 µM)
CSc1ccccc1C(=O)N(C)C(c1ccccc1)c1ccccc1 | 10.6 µg/mL (≈ 30.5 µM)
Cn1cnnc1SCC(=O)Nc1ccc(F)cc1 | > 39.9 µg/mL
COCCCNC(=O)c1cc(S(=O)(=O)NCCCN2CCCC2=O)ccc1Cl | > 64.8 µg/mL
O=C(O)c1ccc2c(c1)C(=O)N(CCc1ccccc1)C2=O | > 44.3 µg/mL
CCN(CC)C(=O)c1ccc(COc2ccccc2Cl)o1 | 45.5 µg/mL (≈ 148 µM)
Cc1ccc2nc(N3CCCCC3)c(C=O)c(=O)n2c1 | 39.1 µg/mL (≈ 144 µM)
COc1ccc(Cc2n[nH]c(=S)o2)cc1 | > 33.3 µg/mL
CSc1ccccc1NC(=O)c1cc(Cl)sc1Cl | 1.4 µg/mL (≈ 4.4 µM)
O=C(OCC(=O)N1CCOCC1)c1ccc(Cl)c(S(=O)(=O)N2CCc3ccccc32)c1 | 32.4 µg/mL (≈ 69.7 µM)
Cc1onc(-c2ccccc2Cl)c1C(=O)OCC(=O)N1CCCCC1 | > 54.4 µg/mL
Cc1cc(C)c(OCCN2CCOCC2)c(Cl)c1 | 26.6 µg/mL (≈ 98.6 µM)
COc1ccc(NC(=O)c2c(N)cnn2C)cc1 | > 36.9 µg/mL

Structure (SMILES) | solubility kinetic
Cc1ccc(CC2C(=O)N(c3cc(Cl)ccn3)C(=O)C2C)cc1 (centres undefined) | > 49.3 µg/mL
O=C(Nc1ccc(SC(F)F)cc1)c1ccc(F)cc1 | 1.3 µg/mL (≈ 4.37 µM)
CCOC(=O)c1cc2cc([N+](=O)[O-])ccc2oc1=O | 18.9 µg/mL (≈ 71.8 µM)
COCCNC(=O)Cn1cc(C(=O)c2ccccc2F)c2ccccc21 | 17.9 µg/mL (≈ 50.5 µM)
COc1ccc(Oc2nc(-c3cccnc3)nc3ccccc23)cc1 | < 0.2 µg/mL
Cc1cc(C)c(NC(=O)C2CC3CCC2C3)c(C)c1 (centres undefined) | 10.1 µg/mL (≈ 39.2 µM)
Cc1csc(NC(=O)c2ccccc2)n1 | > 32.7 µg/mL
COc1cc(OC)c(C(=O)OCC(=O)NC23CC4CC(CC(C4)C2)C3)cc1OC | 3.9 µg/mL (≈ 9.67 µM)
CCOc1ccccc1CNCCNCC(C)O.Cl (centres undefined) | > 48.8 µg/mL
O=C(NCc1cccnc1)C12CC3CC(CC(Cl)(C3)C1)C2 | 43.2 µg/mL (≈ 142 µM)
CC(=O)c1ccc(NC(=S)NC(=O)Cc2ccc(Cl)cc2)cc1 | 0.4 µg/mL (≈ 1.15 µM)
C#CCOC(=O)CN1C(=O)c2cccc3cccc(c23)C1=O | < 0.6 µg/mL
CCOc1ccc2[nH]c3c(NCCN(CC)CC)ncnc3c2c1 | 43.2 µg/mL (≈ 132 µM)
O=C(Nc1ccc(OCc2ccccc2)cc1)Nc1cccnc1 | 1.2 µg/mL (≈ 3.76 µM)
CCOC(=O)c1c(C)[nH]c(NC(=O)Nc2ccc(NC(C)=O)cc2)c1C | 22.2 µg/mL (≈ 61.9 µM)
Cc1cc(C)c2cc(C(=O)Nc3ccc4c(c3)OCO4)[nH]c2c1 | < 0.3 µg/mL
Cc1ccccc1OCC(O)CN(CCO)Cc1ccccc1.Cl (centres undefined) | 40.4 µg/mL
N#Cc1c(Nc2ccccc2C(F)(F)F)s[nH]c1=O | > 42.8 µg/mL
O=C(Nc1ccc(N2CCN(C(=O)c3cccs3)CC2)cc1)c1ccco1 | 1.6 µg/mL (≈ 4.19 µM)
O=[N+]([O-])c1ccc2c(c1)/C(=N\O)c1ccccc1-2 | 0.5 µg/mL (≈ 2.08 µM)
COc1ccc(/C(C)=N/NC(=O)CNC(=O)c2ccco2)cc1 | > 47.3 µg/mL
CN(Cc1ccccc1)C(=O)COC(=O)CCC(=O)c1ccc(Cl)cc1 | 9.6 µg/mL (≈ 25.7 µM)
O=C(CSc1ccccc1C(=O)O)NC1CCCCCC1 | > 46.1 µg/mL
O=[N+]([O-])c1ccc(SCc2ccco2)cc1N1CCOCC1 | 13.2 µg/mL (≈ 41.2 µM)

Structure (SMILES) | solubility kinetic
Cc1ccc(NC(=O)NCC2CC2(Cl)Cl)cc1 (centres undefined) | 9.1 µg/mL (≈ 33.3 µM)
Cc1onc(-c2ccccc2)c1C(=O)NCc1ccc(Cl)cc1 | 1.3 µg/mL (≈ 3.98 µM)
COc1cccc(NC(=O)N2C3CCCC2CC(NC(C)=O)C3)c1 (centres undefined) | > 49.7 µg/mL
CC(C)c1nc(Cl)c(C#N)c2c1COC(C)(C)C2 | 6.6 µg/mL (≈ 24.9 µM)
CC(C)(C)c1ccc(-c2nc(N)nc(N)n2)cc1 | 0.9 µg/mL (≈ 3.7 µM)
Cc1ccccc1Nc1nc(N)nc(COC(=O)c2ccco2)n1 | > 48.8 µg/mL
O=C(c1ccccc1)c1ncc[nH]1 | > 25.8 µg/mL
CC(=O)Nc1csc2ccccc12 | > 28.7 µg/mL
Cc1ccccc1Nc1nc(N)nc(-c2oc3ccccc3c2C)n1 | 1 µg/mL (≈ 3.02 µM)
Cc1[nH]c2ccccc2c1C(=O)C(=O)NCCc1c[nH]c2ccccc12 | 2.6 µg/mL (≈ 7.53 µM)
CC(C)Cc1ccc(C(C)C(N)=NCCc2ccccc2)cc1.Cl (centres undefined) | 51.3 µg/mL
Cc1cc(C)cc(NC(=O)COC(=O)c2cc(C)oc2C)c1 | < 0.6 µg/mL
CCOc1ccccc1NS(=O)(=O)c1ccc2oc(=O)ccc2c1 | 43.6 µg/mL (≈ 126 µM)
Cc1cccc(NC(=O)c2ccc3c(c2)OCCO3)c1C | 22.1 µg/mL (≈ 78 µM)
O=C(Nc1cc(Cl)ccc1Cl)C1CC(=O)N(c2ccccc2)C1 (centres undefined) | 1.7 µg/mL (≈ 4.87 µM)
Cc1ccc(N2CC(=O)Nc3c(oc4nc(-c5ccccc5)cc(C)c34)C2=O)cc1 | < 0.3 µg/mL
CC(C)CC(=O)Nc1ccc([N+](=O)[O-])cc1Cl | 9.8 µg/mL (≈ 38.2 µM)
CC(O)CN1CC(O)=C(c2nc3ccccc3s2)C1=N (centres undefined) | 17.8 µg/mL (≈ 61.5 µM)
CN(C)CCN1C(=O)NC(C)(c2ccc([N+](=O)[O-])cc2)C1=O (centres undefined) | > 45.9 µg/mL
Nc1ccccc1Sc1c[nH]c2ccccc12 | 27.8 µg/mL (≈ 116 µM)
Cc1onc(-c2c(Cl)cccc2Cl)c1C(=O)N1CCCCC1 | > 50.9 µg/mL
O=C1C(CSCc2ccccc2)NC(=S)N1c1ccccc1 (centres undefined) | 2.9 µg/mL (≈ 8.83 µM)
Cn1c(=O)c2c(ncn2CC(=O)Nc2nccs2)n(C)c1=O | 26.1 µg/mL (≈ 81.5 µM)
CN(C)c1cccc(C(=O)NCCCSc2ccccc2)c1 | 17.9 µg/mL (≈ 56.9 µM)

Structure (SMILES) | solubility kinetic
COc1ccccc1/C=C/C(=O)OCC(=O)NC1CCS(=O)(=O)C1 (centres undefined) | > 53 µg/mL
CC1(C)OC(=O)C(=Cc2ccc[nH]2)C(=O)O1 | 25.4 µg/mL (≈ 115 µM)
CC1CN(C(=O)c2ccc(NS(=O)(=O)c3ccc(C(C)(C)C)cc3)cc2)CC(C)O1 (centres undefined) | 48 µg/mL (≈ 111 µM)
CC[C@H](C)[C@H](NC(N)=O)C(=O)NCCc1ccc(OC)cc1 | > 46.1 µg/mL
CC1(C)C2CCC1(C)C(OCCNCCOC(=O)Nc1ccccc1)C2 (centres undefined) | 10.2 µg/mL (≈ 28.3 µM)
CCNS(=O)(=O)c1ccc(CCC(=O)NCc2ccccn2)cc1 | > 52.1 µg/mL
CC(=O)c1c(C)[nH]c(C(=O)COC(=O)c2c(C)noc2C)c1C | 5.4 µg/mL (≈ 17 µM)
O=C(O)C(Cc1ccc(O)cc1)N1C(=O)C2CCCCC2C1=O (centres undefined) | > 47.6 µg/mL
CC1CCCC(C)N1C(=O)COC(=O)c1nn(C)c(=O)c2ccccc12 (centres undefined) | > 53.6 µg/mL
CCCN(CC(=O)Nc1ccccc1C)C(=O)c1cnc(C)cn1 | > 49 µg/mL
Cc1cc(=O)[nH]c(SCC(=O)Nc2ccc3c(c2)CCC3)c1C#N | 17.7 µg/mL (≈ 52.1 µM)
O=C(COC(=O)/C=C/c1ccco1)NC1CCCCC1 | 16.3 µg/mL (≈ 58.8 µM)
O=S1(=O)NC(=NCCOCCO)c2ccccc21 | > 40.5 µg/mL
O=C1CCC(=O)N1CC(=O)N(c1ccccc1)c1ccccc1 | 40.4 µg/mL (≈ 131 µM)
CCOC(=O)C1CCCN(C(=O)c2[nH]c3ccc(OC)cc3c2C)C1 (centres undefined) | > 51.7 µg/mL
COc1ccc(C(=O)O)cc1S(=O)(=O)NCCN(C)C | 44.1 µg/mL (≈ 146 µM)
O=C(CCc1ccccc1)Nc1cccnc1 | > 33.9 µg/mL
O=C(Nc1nc2ccsc2c(=O)s1)c1ccc(F)cc1Cl | < 0.4 µg/mL
O=C(NCc1cccnc1)NC(=O)c1ccc(Cl)cc1 | 3.8 µg/mL (≈ 13.1 µM)
O=C(C1CCC1)N1CCC(O)(c2cccc(F)c2)CC1 | 39.4 µg/mL (≈ 142 µM)
COC(=O)c1sccc1NC(=S)Nc1cc(C)ccc1OC | 36.3 µg/mL (≈ 108 µM)
Cn1c(/C=C/c2ccccc2[N+](=O)[O-])nc2ccccc2c1=O | 0.6 µg/mL (≈ 1.95 µM)
Cc1cc(NC(=O)Nc2cc(Cl)sc2Cl)no1 | < 0.2 µg/mL
O=C(COC(=O)C1COc2ccccc2O1)NC1CCCCC1 (centres undefined) | > 47.9 µg/mL

Structure (SMILES) | solubility kinetic
O=C(Nc1ccc(S(=O)(=O)N2CCOCC2)cc1)C1CC1 | > 46.6 µg/mL
Cc1ccnc(SCC(N)=O)n1 | > 27.5 µg/mL
COc1ccc(NC(=O)COc2ccc(Br)cc2)c(OC)c1 | < 0.8 µg/mL
O=C(O)CC(CC(=O)Nc1ccc2ccccc2n1)c1ccccc1 (centres undefined) | > 50.2 µg/mL
CC(C)c1ccc(OCCCN2CCCC2)cc1 | 28.8 µg/mL (≈ 116 µM)
CN(C(=O)Cn1cc(C#N)c2ccccc21)c1ccccc1 | 7.4 µg/mL (≈ 25.6 µM)
O=C1C2C3C=CC(C2C(=O)N1CCO)C1C(=O)N(CCO)C(=O)C31 (centres undefined) | > 50.1 µg/mL
COc1ccccc1/C=N/OCc1cc(C(C)=O)ccc1OC | 8.4 µg/mL (≈ 26.8 µM)
CN1CCN(c2ccc(C(F)(F)F)cc2NC(=O)c2ccco2)CC1 | > 53 µg/mL
O=C(O)c1cc([N+](=O)[O-])ccc1NCCCc1ccccc1 | > 45 µg/mL
N#Cc1c(N2CCCC2)ccc(Br)c1Cl | < 0.3 µg/mL
CC(C)(C)C(=O)O/N=C(\N)c1ccc(Oc2cc(Cl)cc(Cl)c2)c([N+](=O)[O-])c1 | < 0.3 µg/mL
Cc1c(C(=O)Nc2cccnc2)oc2ccc(Br)cc12 | < 0.4 µg/mL
O=C(CSC1=Nc2ccccc2C2CC=NN12)NCc1ccco1 (centres undefined) | > 51.1 µg/mL
O=C(NCc1ccccc1)C1(c2cccc(F)c2)CCCC1 | 12.2 µg/mL (≈ 41 µM)
O=c1c2oc3ccccc3c2ncn1Cc1cccc(Cl)c1 | < 0.3 µg/mL
CC(CCc1ccccc1)NC(=O)CN(C)Cc1ccccc1F (centres undefined) | 48.4 µg/mL (≈ 147 µM)
CCC(=O)c1cn(CC(=O)Nc2ccccc2)c2ccccc12 | < 0.3 µg/mL
CCc1nn(CC(=O)N2CCC(C)CC2)c(=O)c2cccn12 | > 45.4 µg/mL
CS(=O)(=O)N(CC(=O)NCC1CCCO1)c1cccc(Cl)c1 (centres undefined) | > 52 µg/mL
CCCc1cc(=O)[nH]c(SCC(=O)Nc2ccc(N3CCCCC3)cc2)n1 | 16.6 µg/mL (≈ 42.9 µM)
COC(=O)C1CCN(c2cc(Cl)nc(N)n2)CC1 | 24.5 µg/mL (≈ 90.5 µM)
Cc1cccc(NC(=O)C(=O)NCCc2c[nH]c3ccccc23)c1C | 1.4 µg/mL (≈ 4.17 µM)
